In publication PMC7182600 (Influenza and Other Respiratory Viruses, 2020):

Target: NA of rPhuket3073/Yamagata (wild‐type) (Influenza B virus, UniProt A0A1S5RAG6)
Assay type: biochemical
Conditions: read-out: IC50 values of NA inhibitors

Chain of NA of rPhuket3073/Yamagata (wild‐type) (A0A1S5RAG6 entry or part of it, added parts left off): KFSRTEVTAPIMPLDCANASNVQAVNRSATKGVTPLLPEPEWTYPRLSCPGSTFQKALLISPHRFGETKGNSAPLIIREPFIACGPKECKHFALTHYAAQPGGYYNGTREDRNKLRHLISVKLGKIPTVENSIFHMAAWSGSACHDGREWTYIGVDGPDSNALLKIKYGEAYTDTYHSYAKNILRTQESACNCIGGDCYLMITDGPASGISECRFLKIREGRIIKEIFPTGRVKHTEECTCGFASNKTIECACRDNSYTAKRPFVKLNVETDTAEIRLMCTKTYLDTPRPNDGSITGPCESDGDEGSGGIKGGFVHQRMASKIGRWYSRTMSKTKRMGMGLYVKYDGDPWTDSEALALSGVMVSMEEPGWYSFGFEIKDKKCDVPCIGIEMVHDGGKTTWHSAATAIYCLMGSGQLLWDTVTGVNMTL

Substance: Peramivir
- IC50: 0.5 nM
